Test results from ChEMBL document CHEMBL5649169 (ChemMedChem, 2018).

Experiments:
[1] = target: Pyruvate kinase PKM (Homo sapiens) (UniProt P14618); further: assay method not described here
[2] = target: SERPINE1 mRNA-binding protein 1 (Homo sapiens) (UniProt Q8NC51); further: assay method not described here
[3] = target: Heat shock protein beta-1 (Homo sapiens) (UniProt P04792); further: assay method not described here
[4] = species: Homo sapiens; further: assay method not described here
[5] = target: Ceramide synthase 2 (Homo sapiens) (UniProt Q96G23); further: assay method not described here
[6] = target: Synaptic vesicle membrane protein VAT-1 homolog (Homo sapiens) (UniProt Q99536); further: assay method not described here
[7] = target: Serine/threonine-protein kinase NLK (Homo sapiens) (UniProt Q9UBE8); further: assay method not described here
[8] = target: Phosphorylase b kinase gamma catalytic chain, liver/testis isoform (Homo sapiens) (UniProt P15735); further: assay method not described here
[9] = target: Aspartate--tRNA ligase, cytoplasmic (Homo sapiens) (UniProt P14868); further: assay method not described here
[10] = target: MAP kinase-activated protein kinase 5 (Homo sapiens) (UniProt Q8IW41); further: assay method not described here
[11] = target: Pyruvate dehydrogenase E1 component subunit beta, mitochondrial (Homo sapiens) (UniProt P11177); further: assay method not described here
[12] = target: UDP-glucose:glycoprotein glucosyltransferase 1 (Homo sapiens) (UniProt Q9NYU2); further: assay method not described here
[13] = target: Ephrin type-A receptor 6 (Homo sapiens, UniProt Q9UF33); test: Inhibition of Nano Luc-fused full length C-terminal EPHA6 (unknown origin) expressed in HEK293T cells using NanoGlo as substrate incubated for 2 hrs in presence of tracer by NanoBRET assay; assay type: cell-based
[14] = target: FACT complex subunit SSRP1 (Homo sapiens) (UniProt Q08945); further: assay method not described here
[15] = target: Glia maturation factor gamma (Homo sapiens) (UniProt O60234); further: assay method not described here
[16] = target: Heterogeneous nuclear ribonucleoprotein U-like protein 1 (Homo sapiens) (UniProt Q9BUJ2); further: assay method not described here
[17] = target: Probable ATP-dependent RNA helicase DDX20 (Homo sapiens) (UniProt Q9UHI6); further: assay method not described here
[18] = target: Lysosome-associated membrane glycoprotein 2 (Homo sapiens) (UniProt P13473); further: assay method not described here
[19] = target: Protein-tyrosine kinase 6 (Homo sapiens) (UniProt Q13882); further: assay method not described here
[20] = target: Signal peptidase complex subunit 2 (Homo sapiens) (UniProt Q15005); further: assay method not described here
[21] = target: Acyl-CoA dehydrogenase family member 10 (Homo sapiens) (UniProt Q6JQN1); further: assay method not described here
[22] = target: Glutathione S-transferase omega-1 (Homo sapiens) (UniProt P78417); further: assay method not described here
[23] = target: Nestin (Homo sapiens) (UniProt P48681); further: assay method not described here
[24] = target: Carbamoyl-phosphate synthase [ammonia], mitochondrial (Homo sapiens) (UniProt P31327); further: assay method not described here
[25] = target: 5'-AMP-activated protein kinase subunit beta-1 (Homo sapiens) (UniProt Q9Y478); further: assay method not described here
[26] = target: Mitochondrial-processing peptidase subunit beta (Homo sapiens) (UniProt O75439); further: assay method not described here
[27] = target: Cytochrome c oxidase subunit 5A, mitochondrial (Homo sapiens) (UniProt P20674); further: assay method not described here
[28] = target: Mitogen-activated protein kinase kinase kinase kinase 5 (Homo sapiens) (UniProt Q9Y4K4); further: assay method not described here
[29] = target: Constitutive coactivator of PPAR-gamma-like protein 1 (Homo sapiens) (UniProt Q9NZB2); further: assay method not described here
[30] = target: Exportin-5 (Homo sapiens) (UniProt Q9HAV4); further: assay method not described here
[31] = target: Nuclear pore complex protein Nup205 (Homo sapiens) (UniProt Q92621); further: assay method not described here
[32] = target: Hexokinase-1 (Homo sapiens) (UniProt P19367); further: assay method not described here
[33] = target: Small ribosomal subunit protein uS17 (Homo sapiens) (UniProt P62280); further: assay method not described here
[34] = target: Signal recognition particle 14 kDa protein (Homo sapiens) (UniProt P37108); further: assay method not described here
[35] = target: Proliferating cell nuclear antigen (Homo sapiens) (UniProt P12004); further: assay method not described here
[36] = target: SUN domain-containing protein 2 (Homo sapiens) (UniProt Q9UH99); further: assay method not described here
[37] = target: Staphylococcal nuclease domain-containing protein 1 (Homo sapiens) (UniProt Q7KZF4); further: assay method not described here
[38] = target: Rho-associated protein kinase 1 (Homo sapiens) (UniProt Q13464); further: assay method not described here
[39] = species: Homo sapiens; remark: listed apart in the source; further: assay method not described here
[40] = target: RuvB-like 1 (Homo sapiens) (UniProt Q9Y265); further: assay method not described here
[41] = target: RAC-gamma serine/threonine-protein kinase (Homo sapiens) (UniProt Q9Y243); further: assay method not described here
[42] = target: Coatomer subunit alpha (Homo sapiens) (UniProt P53621); further: assay method not described here
[43] = target: Cystatin-B (Homo sapiens) (UniProt P04080); further: assay method not described here
[44] = target: Peroxiredoxin-1 (Homo sapiens) (UniProt Q06830); further: assay method not described here
[45] = target: Alpha-internexin (Homo sapiens) (UniProt Q16352); further: assay method not described here
[46] = target: Growth hormone-inducible transmembrane protein (Homo sapiens) (UniProt Q9H3K2); further: assay method not described here
Growth hormone-inducible transmembrane protein (Homo sapiens), sequence (Q9H3K2 whole entry): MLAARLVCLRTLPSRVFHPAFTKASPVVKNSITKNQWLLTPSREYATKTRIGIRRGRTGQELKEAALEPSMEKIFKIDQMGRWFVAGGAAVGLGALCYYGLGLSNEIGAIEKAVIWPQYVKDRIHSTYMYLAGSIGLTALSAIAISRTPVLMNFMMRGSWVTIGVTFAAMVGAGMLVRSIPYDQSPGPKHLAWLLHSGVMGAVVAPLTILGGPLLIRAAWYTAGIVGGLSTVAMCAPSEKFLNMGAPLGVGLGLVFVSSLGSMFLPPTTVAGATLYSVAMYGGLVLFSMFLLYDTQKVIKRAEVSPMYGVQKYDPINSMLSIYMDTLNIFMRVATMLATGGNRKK

Synaptic vesicle membrane protein VAT-1 homolog (Homo sapiens), sequence (Q99536 whole entry): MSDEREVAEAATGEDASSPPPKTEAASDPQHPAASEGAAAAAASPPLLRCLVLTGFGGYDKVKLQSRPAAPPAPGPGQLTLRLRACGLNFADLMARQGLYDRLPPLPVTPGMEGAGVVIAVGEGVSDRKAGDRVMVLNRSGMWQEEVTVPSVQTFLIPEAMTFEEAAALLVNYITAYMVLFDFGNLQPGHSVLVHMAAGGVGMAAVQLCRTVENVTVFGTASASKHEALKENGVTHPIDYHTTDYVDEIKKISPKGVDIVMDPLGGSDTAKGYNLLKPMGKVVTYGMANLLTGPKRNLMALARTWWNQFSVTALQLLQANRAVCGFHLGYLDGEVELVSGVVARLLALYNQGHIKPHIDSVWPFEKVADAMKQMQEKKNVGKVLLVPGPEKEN
Hexokinase-1 (Homo sapiens), sequence (P19367 whole entry): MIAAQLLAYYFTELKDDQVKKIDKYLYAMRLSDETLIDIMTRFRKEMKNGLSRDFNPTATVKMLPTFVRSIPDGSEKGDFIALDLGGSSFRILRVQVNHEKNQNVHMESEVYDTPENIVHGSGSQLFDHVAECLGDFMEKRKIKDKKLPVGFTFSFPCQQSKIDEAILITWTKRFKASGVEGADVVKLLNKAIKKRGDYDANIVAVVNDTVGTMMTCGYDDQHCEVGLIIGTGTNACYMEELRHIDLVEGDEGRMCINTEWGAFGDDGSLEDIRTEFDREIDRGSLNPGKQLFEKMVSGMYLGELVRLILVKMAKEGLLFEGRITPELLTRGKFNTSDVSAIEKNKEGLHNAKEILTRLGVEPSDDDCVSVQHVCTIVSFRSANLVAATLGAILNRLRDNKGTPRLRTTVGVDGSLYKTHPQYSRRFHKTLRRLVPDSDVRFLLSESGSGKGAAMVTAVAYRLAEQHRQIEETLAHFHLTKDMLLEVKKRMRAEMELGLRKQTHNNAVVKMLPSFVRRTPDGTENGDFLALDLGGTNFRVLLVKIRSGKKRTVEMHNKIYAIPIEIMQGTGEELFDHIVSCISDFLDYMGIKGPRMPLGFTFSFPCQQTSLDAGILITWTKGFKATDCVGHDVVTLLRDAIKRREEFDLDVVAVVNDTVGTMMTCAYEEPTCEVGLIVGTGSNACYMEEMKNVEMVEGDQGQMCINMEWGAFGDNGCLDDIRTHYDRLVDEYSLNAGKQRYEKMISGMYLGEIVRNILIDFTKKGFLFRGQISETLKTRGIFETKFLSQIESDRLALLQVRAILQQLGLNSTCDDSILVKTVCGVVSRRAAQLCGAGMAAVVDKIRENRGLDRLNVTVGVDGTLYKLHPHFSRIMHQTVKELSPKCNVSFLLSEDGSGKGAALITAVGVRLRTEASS
Cytochrome c oxidase subunit 5A, mitochondrial (Homo sapiens), sequence (P20674 whole entry): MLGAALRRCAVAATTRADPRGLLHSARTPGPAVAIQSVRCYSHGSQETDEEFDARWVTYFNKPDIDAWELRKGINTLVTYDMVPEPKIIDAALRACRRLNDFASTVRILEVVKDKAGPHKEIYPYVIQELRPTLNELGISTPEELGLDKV
Aspartate--tRNA ligase, cytoplasmic (Homo sapiens), sequence (P14868 whole entry): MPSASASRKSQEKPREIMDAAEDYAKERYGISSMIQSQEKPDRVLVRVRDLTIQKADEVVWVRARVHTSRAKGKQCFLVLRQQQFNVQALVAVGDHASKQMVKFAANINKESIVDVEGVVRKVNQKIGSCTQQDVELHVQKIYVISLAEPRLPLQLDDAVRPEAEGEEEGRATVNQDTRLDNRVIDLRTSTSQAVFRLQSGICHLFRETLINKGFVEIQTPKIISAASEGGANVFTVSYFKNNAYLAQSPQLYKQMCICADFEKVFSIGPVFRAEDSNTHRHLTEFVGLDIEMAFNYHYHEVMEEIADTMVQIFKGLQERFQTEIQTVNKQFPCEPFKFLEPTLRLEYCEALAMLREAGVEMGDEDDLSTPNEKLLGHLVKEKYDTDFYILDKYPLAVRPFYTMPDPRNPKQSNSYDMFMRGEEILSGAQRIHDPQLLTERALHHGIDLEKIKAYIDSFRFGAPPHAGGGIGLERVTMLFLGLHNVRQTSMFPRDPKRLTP
Mitogen-activated protein kinase kinase kinase kinase 5 (Homo sapiens), sequence (Q9Y4K4 whole entry, looked up): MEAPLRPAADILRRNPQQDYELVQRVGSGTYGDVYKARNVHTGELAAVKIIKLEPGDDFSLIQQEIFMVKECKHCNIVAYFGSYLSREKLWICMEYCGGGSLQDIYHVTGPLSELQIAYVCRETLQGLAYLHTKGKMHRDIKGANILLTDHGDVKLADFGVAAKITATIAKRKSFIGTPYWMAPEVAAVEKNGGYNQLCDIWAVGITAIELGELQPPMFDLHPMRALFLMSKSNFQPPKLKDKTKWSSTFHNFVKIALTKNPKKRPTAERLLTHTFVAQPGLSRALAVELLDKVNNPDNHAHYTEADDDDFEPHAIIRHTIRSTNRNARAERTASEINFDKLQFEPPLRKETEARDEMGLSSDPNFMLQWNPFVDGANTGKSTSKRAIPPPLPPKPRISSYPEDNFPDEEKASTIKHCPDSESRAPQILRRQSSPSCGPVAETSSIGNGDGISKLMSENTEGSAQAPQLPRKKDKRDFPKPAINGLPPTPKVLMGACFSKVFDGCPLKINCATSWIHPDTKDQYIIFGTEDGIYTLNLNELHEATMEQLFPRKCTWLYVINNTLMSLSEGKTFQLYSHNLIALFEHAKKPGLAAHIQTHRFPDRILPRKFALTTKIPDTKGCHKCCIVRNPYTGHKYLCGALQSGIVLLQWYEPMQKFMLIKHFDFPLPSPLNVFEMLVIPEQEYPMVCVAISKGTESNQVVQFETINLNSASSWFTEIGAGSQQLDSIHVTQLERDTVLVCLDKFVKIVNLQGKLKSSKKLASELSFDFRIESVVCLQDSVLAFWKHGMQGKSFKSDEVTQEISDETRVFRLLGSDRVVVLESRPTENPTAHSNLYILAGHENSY
Heat shock protein beta-1 (Homo sapiens), sequence (P04792 whole entry): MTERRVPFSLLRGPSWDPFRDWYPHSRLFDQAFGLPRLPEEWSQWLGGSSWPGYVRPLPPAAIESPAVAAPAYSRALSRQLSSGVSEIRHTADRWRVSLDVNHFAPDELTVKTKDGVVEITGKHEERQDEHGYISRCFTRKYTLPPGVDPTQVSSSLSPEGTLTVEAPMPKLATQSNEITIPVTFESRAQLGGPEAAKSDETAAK
Probable ATP-dependent RNA helicase DDX20 (Homo sapiens), sequence (Q9UHI6 whole entry): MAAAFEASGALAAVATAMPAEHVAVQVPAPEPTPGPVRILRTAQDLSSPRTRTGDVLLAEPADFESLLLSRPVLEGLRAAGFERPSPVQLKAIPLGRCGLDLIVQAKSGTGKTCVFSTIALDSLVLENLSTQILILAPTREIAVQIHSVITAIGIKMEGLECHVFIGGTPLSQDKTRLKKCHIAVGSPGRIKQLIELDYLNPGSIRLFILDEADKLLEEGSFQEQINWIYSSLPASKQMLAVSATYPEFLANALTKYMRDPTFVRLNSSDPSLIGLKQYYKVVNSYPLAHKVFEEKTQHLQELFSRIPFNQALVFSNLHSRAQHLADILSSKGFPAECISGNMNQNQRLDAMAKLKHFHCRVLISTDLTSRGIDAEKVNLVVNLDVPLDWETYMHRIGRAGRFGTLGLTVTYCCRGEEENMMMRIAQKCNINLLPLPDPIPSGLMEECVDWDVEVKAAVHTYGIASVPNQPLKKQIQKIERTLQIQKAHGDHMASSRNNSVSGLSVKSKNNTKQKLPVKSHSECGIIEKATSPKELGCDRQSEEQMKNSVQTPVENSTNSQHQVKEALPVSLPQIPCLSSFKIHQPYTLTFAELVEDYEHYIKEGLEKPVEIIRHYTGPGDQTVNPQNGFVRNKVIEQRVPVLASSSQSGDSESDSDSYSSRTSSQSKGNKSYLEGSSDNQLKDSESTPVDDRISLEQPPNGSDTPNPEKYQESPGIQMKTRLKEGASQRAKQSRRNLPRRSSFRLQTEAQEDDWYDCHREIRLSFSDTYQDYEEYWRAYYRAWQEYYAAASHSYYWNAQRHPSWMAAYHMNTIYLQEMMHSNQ
Signal recognition particle 14 kDa protein (Homo sapiens), sequence (P37108 whole entry): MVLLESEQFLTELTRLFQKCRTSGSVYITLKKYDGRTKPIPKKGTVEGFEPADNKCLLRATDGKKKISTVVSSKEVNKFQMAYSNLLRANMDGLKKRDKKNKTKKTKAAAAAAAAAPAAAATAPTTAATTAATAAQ
SERPINE1 mRNA-binding protein 1 (Homo sapiens), sequence (Q8NC51 whole entry): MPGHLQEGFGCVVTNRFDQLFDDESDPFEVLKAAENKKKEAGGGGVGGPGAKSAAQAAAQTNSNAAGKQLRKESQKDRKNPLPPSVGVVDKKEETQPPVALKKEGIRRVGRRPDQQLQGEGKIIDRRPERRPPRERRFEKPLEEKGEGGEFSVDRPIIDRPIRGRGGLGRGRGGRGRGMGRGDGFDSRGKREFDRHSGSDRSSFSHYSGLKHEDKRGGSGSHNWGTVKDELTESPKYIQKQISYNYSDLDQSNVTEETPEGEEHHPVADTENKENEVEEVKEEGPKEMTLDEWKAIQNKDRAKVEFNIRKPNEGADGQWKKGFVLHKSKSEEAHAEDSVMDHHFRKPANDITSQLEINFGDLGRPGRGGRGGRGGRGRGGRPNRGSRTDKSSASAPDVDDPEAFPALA
Cystatin-B (Homo sapiens), sequence (P04080 whole entry): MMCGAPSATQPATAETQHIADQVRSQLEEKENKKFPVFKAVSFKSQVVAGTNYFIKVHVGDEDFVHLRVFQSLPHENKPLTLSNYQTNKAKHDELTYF

`Cc1ccc(C(=O)Nc2cccc(C(F)(F)F)c2)cc1Nc1nc(-c2cccnc2)nc2c1cnn2C` was tested, and the ED50 [1] was 5.83 µM, the ED50 [2] was 0.0274 µM and the ED50 [3] was 11 µM. For the same molecule, the ED50 [4] was 2.74 µM, the ED50 [5] was 0.0683 µM and the ED50 [6] was 7.96 µM. The ED50 [7] was 0.00185 µM, the ED50 [8] was 0.144 µM and the ED50 [9] was 0.0564 µM. It also gave an ED50 [10] of 26.2 µM, an ED50 [11] of 3.33 µM and an ED50 [12] of 54.5 µM. For the same molecule, the IC50 [13] was 0.263 µM, the ED50 [14] was 0.00223 µM and the ED50 [15] was 70.9 µM. For the same molecule, the ED50 [16] was 0.922 µM, the ED50 [17] was 0.616 µM and the ED50 [18] was 0.0378 µM. The ED50 [19] was 5.95 µM, the ED50 [20] was 0.916 µM and the ED50 [21] was 11.5 µM. For the same molecule, the ED50 [22] was 4.06 µM, the ED50 [23] was 0.244 µM and the ED50 [24] was 11.8 µM. The ED50 [25] was 3.25 µM, the ED50 [26] was 10.5 µM and the ED50 [27] was 3.62 µM. It also gave an ED50 [28] of 5.17 µM, an ED50 [29] of 4.66 µM and an ED50 [30] of 0.0475 µM. It also gave an ED50 [31] of 2.26 µM, an ED50 [32] of 0.00555 µM and an ED50 [33] of 0.0251 µM. For the same molecule, the ED50 [34] was 20.3 µM, the ED50 [35] was 3.51 µM and the ED50 [36] was 13.5 µM. The ED50 [37] was 23.6 µM, the ED50 [38] was 11 µM and the ED50 [39] was 0.0833 µM. The ED50 [40] was 4.25 µM, the ED50 [41] was 0.0059 µM and the ED50 [42] was 0.127 µM. The ED50 [43] was 6.95 µM, the ED50 [44] was 0.0459 µM and the ED50 [45] was 0.306 µM. It also gave an ED50 [46] of 0.00891 µM.
`Cc1ccc(C(=O)Nc2cccc(C(F)(F)F)c2)cc1Nc1nc(-c2cccnc2)nc2nn(C)cc12` was tested, and the ED50 [1] was 0.174 µM, the ED50 [2] was 11 µM and the ED50 [3] was 0.0109 µM. The ED50 [4] was 0.0747 µM, the ED50 [5] was 3.6 µM and the ED50 [6] was 145 µM. For the same molecule, the ED50 [7] was 0.0242 µM, the ED50 [8] was 0.0181 µM and the ED50 [9] was 6.72 µM. For the same molecule, the ED50 [10] was 0.047 µM, the ED50 [11] was 7.18 µM and the ED50 [12] was 0.0435 µM. It also gave an IC50 [13] of over 50 µM, an ED50 [14] of 3.6 µM and an ED50 [15] of 0.00291 µM. The ED50 [16] was 2.56 µM, the ED50 [17] was 0.0285 µM and the ED50 [18] was 1.72 µM. For the same molecule, the ED50 [19] was 68.5 µM, the ED50 [20] was 2.99 µM and the ED50 [21] was 0.434 µM. It also gave an ED50 [22] of 0.0945 µM, an ED50 [23] of 1.3 µM and an ED50 [24] of 0.188 µM. It also gave an ED50 [25] of 5.82 µM, an ED50 [26] of 0.0476 µM and an ED50 [27] of 3250 µM. For the same molecule, the ED50 [28] was 13.4 µM, the ED50 [29] was 0.00365 µM and the ED50 [30] was 3.69 µM. For the same molecule, the ED50 [31] was 1.17 µM, the ED50 [32] was 173 µM and the ED50 [33] was 0.0189 µM. The ED50 [34] was 3.59 µM, the ED50 [35] was 0.502 µM and the ED50 [36] was 0.111 µM. It also gave an ED50 [37] of 0.57 µM, an ED50 [38] of 2.23 µM and an ED50 [39] of 21400 µM. For the same molecule, the ED50 [40] was 8.41 µM, the ED50 [41] was 3.14 µM and the ED50 [42] was 0.652 µM. For the same molecule, the ED50 [43] was 12.8 µM, the ED50 [44] was 9.72 µM and the ED50 [45] was 1.7 µM. The ED50 [46] was 0.0192 µM.
